Results: patent US11253525B2, “Inhibitors of indoleamine 2,3-dioxygenase and methods of their use” (BRISTOL-MYERS SQUIBB COMPANY, priority 2018, dated 2022)

target: T1, indoleamine 2,3-dioxygenase (IDO) (Homo sapiens, UniProt P14902); test: HeLa cell-based indoleamine 2,3-dioxygenase (IDO) assay, kynurenine production; details: HeLa cells, IFNγ 25 ng/mL, 48 hour incubation; read-out: IDO Hela IC50
T1 construct: replaced with media containing IFNγ (#285-IF/CF, R&D Systems) at a final concentration of 25 ng/mL; endogenous in cells; host or cells: HeLa (ATCC CCL-2), IFN-gamma stimulated
Description: Assessment of Inhibitor Activity in HeLa Cell-Based Indoleamine 23-Dioxygenase (IDO) Assay
Cells were maintained in a humidified incubator at 37° C. in 5% CO2.
IDO activity was assessed as a function of kynurenine production as follows: HeLa cells were seeded in a 96-well culture plate at a density of 5,000 cells/well and allowed to equilibrate overnight. […] A serial dilution of each test compound was added to the cells in a total volume of 200 μL of culture medium. After a further 48 hour incubation, 170 μL of supernatant was transferred from each well to a fresh 96-well plate. 12.1 μL of 6.1N trichloroacetic acid (#T0699, Sigma-Aldrich) was added to each well and mixed, followed by incubation at 65° C. for 20 minutes to hydrolyze N-formylkynurenine, the product of indoleamine 2,3-dioxygenase, to kynurenine. The reaction mixture was then centrifuged for 10 mins at 500×g to sediment the precipitate. 100 μL of the supernatant was transferred from each well to a fresh 96-well plate. […] Kynurenine concentrations were determined by measuring absorbance at 480 nm and calibrating against an L-kynurenine (#K8625, Sigma-Aldrich) standard curve using a SPECTRAMAX® M2e microplate reader (Molecular Devices). The percentage activity at each inhibitor concentration was determined and IC50 values assessed using nonlinear regression.

T1 sequence (P14902 whole entry): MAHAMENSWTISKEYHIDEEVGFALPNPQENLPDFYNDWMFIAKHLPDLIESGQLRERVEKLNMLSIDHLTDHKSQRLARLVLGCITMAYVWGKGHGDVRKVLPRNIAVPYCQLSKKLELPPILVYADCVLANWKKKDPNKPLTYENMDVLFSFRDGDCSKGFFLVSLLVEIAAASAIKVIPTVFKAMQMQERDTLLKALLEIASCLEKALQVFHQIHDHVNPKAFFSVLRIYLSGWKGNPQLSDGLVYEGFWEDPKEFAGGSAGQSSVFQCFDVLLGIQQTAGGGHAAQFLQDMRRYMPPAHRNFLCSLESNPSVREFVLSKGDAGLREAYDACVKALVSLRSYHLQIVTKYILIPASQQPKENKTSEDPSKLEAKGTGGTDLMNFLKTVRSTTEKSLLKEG

Compared with “(S)-3-(3-(3-(4-cyano-3-fluorophenyl)ureido)-4-((R)-1-ethoxy-2,2,2-trifluoroethyl)phenyl)-4-methoxybutanoic acid [Example 63]”, `CCOc1ncc(Nc2cc([C@@H](CC)CC(=O)O)ccc2[C@@H](OCC)C(F)(F)F)cn1` (relative stereo) [Example 24, (S)-3-(4-((R)-1-ethoxy-2,2,2-trifluoroethyl)-3-((2-ethoxypyrimidin-5-yl)amino)phenyl)pentanoic acid] is 2-fold lower in IC50: 20 nM for the first, 10 nM for the second.

Compared with `CC[C@@H](c1ccc([C@@H](COC)CC(=O)O)cc1Nc1ccc(F)cc1)N1CCOCC1` (single isomer, unassigned) [Example 106], `CCOc1ncc(Nc2cc([C@@H](CC)CC(=O)O)ccc2[C@H](OC)C(F)(F)F)cn1` (single isomer, unassigned) [Example 99] is 3-fold higher in IC50: 10 nM for the first, 30 nM for the second. The first is the more potent here.

Going from `CCOc1ncc(Nc2cc([C@H](CC)CC(=O)O)ccc2[C@@H](OCC)C(F)(F)F)cn1` (single isomer, unassigned) [Example 12] to `CCOc1ncc(Nc2cc([C@H](CC)CC(=O)O)ccc2[C@@H](CC)C2CCOCC2)cn1` (single isomer, unassigned) [Example 125-1], the IC50 rises from 20 nM to 40 nM (2-fold).

Going from `CCc1ncc(Nc2cc([C@H](CC)CC(=O)O)ccc2[C@H](CC)C2CCOCC2)cn1` (single isomer, unassigned) [Example 128] to `CCO[C@H](c1ccc([C@@H](COC)CC(=O)O)cc1Nc1cnc(C)nc1)C(F)(F)F` (single isomer, unassigned) [Example 67], the IC50 rises from 120 nM to 410 nM (3.4-fold).

First: CC[C@@H](CC(=O)O)c1ccc([C@@H](OC)C(F)(F)F)c(Nc2cnc(C)nc2)c1 (single isomer, unassigned) [Example 86]
Second: CCO[C@H](c1ccc([C@@H](CC)CC(=O)O)cc1NC(=O)Nc1ccc(Cl)cc1F)C(F)(F)F (single isomer, unassigned) [Example 20]
The IC50 of the first is 45-fold higher: 450 nM for the first, 10 nM for the second. The second is the more potent here.

Going from `CCO[C@@H](c1ccc([C@@H](CC)CC(=O)O)cc1Nc1cnc(OC)nc1)C(F)(F)F` (single isomer, unassigned) [Example 43] to `CCO[C@H](c1ccc([C@H](COC)CC(=O)O)cc1NC(=O)Nc1ccc(Cl)cc1F)C(F)(F)F` (single isomer, unassigned) [Example 53], the IC50 rises from 10 nM to 40 nM (4-fold).

Compared with `CCO[C@@H](c1ccc([C@@H](COC)CC(=O)O)cc1Nc1cnc(OC)nc1)C(F)(F)F` (single isomer, unassigned) [Example 76], `CCO[C@H](c1ccc([C@H](CC)CC(=O)O)cc1Nc1cnc(C)nc1)C(F)(F)F` (relative stereo) [Example 17, (R)-3-(4-((R)-1-ethoxy-2,2,2-trifluoroethyl)-3-((2-methylpyrimidin-5-yl)amino)phenyl)pentanoic acid] is 5.4-fold lower in IC50: 700 nM for the first, 130 nM for the second.

Compared with `CCO[C@H](c1ccc([C@H](COC)CC(=O)O)cc1Nc1ccc(C#N)cc1)C(F)(F)F` (relative stereo) [Example 57, (R)-3-(3-((4-cyanophenyl)amino)-4-((R)-1-ethoxy-2,2,2-trifluoroethyl)phenyl)-4-methoxybutanoic acid], `CCO[C@H](c1ccc([C@@H](CC)CC(=O)O)cc1Nc1cnc(CC)nc1)C(F)(F)F` (single isomer, unassigned) [Example 29] is 2-fold higher in IC50: 10 nM for the first, 20 nM for the second. The first is the more potent here.

Going from `CCOc1ncc(Nc2cc([C@H](CC)CC(=O)O)ccc2[C@H](OC)C(F)(F)F)cn1` (relative stereo) [Example 95, (R)-3-(3-((2-ethoxypyrimidin-5-yl)amino)-4-((S)-2,2,2-trifluoro-1-methoxyethyl)phenyl)pentanoic acid] to `CCO[C@H](c1ccc([C@H](CC)CC(=O)O)cc1Nc1cnc(COC)nc1)C(F)(F)F` (single isomer, unassigned) [Example 16], the IC50 rises from 10 nM to 610 nM (61-fold). The first is the more potent here.

First: CC[C@@H](CC(=O)O)c1ccc([C@@H](CC)N2CCOCC2)c(Nc2ccc(C#N)cc2)c1 (single isomer, unassigned) [Example 124]
Second: CCc1ncc(Nc2cc([C@H](CC)CC(=O)O)ccc2[C@@H](CC)N2CCOCC2)cn1 (single isomer, unassigned) [Example 119]
The IC50 of the first is 3.5-fold higher: 70 nM for the first, 20 nM for the second.

First: CCOc1ncc(Nc2cc([C@@H](COC)CC(=O)O)ccc2[C@H](CC)N2CCOCC2)cn1 (single isomer, unassigned) [Example 103]
Second: CCO[C@@H](c1ccc([C@@H](CC)CC(=O)O)cc1Nc1cnc(COC)nc1)C(F)(F)F (single isomer, unassigned) [Example 49]
The IC50 of the first is 2.2-fold lower: 200 nM for the first, 440 nM for the second. The first is the more potent here.

First: CCO[C@H](c1ccc([C@H](CC)CC(=O)O)cc1Nc1cnc(OC)cn1)C(F)(F)F (single isomer, unassigned) [Example 14]
Second: CC[C@H](CC(=O)O)c1ccc([C@@H](CC)C2CCOCC2)c(Nc2ccc(COC)nc2)c1 (single isomer, unassigned) [Example 129]
The IC50 of the first is 31-fold lower: 10 nM for the first, 310 nM for the second. The first is the more potent here.

Going from `CC[C@@H](CC(=O)O)c1ccc([C@@H](CC)N2CCOCC2)c(Nc2ccc(Cl)cc2)c1` (single isomer, unassigned) [Example 132] to `CCO[C@H](c1ccc([C@H](CC)CC(=O)O)cc1Nc1cnc(CC)nc1)C(F)(F)F` (relative stereo) [Example 18, (R)-3-(4-((R)-1-ethoxy-2,2,2-trifluoroethyl)-3-((2-ethylpyrimidin-5-yl)amino)phenyl)pentanoic acid], the IC50 falls from 70 nM to 40 nM (1.8-fold).

`CCOc1ncc(Nc2cc([C@@H](CC)CC(=O)O)ccc2[C@H](OCC)C(F)(F)F)cn1` (single isomer, unassigned) [Example 45] and `CCO[C@H](c1ccc([C@@H](COC)CC(=O)O)cc1Nc1cnc(OC)nc1)C(F)(F)F` (single isomer, unassigned) [Example 62] are within 1.5-fold of each other in IC50: 30 nM for the first, 40 nM for the second.

With `CCO[C@@H](c1ccc([C@H](CC)CC(=O)O)cc1Nc1cnc(CC)nc1)C(F)(F)F` (single isomer, unassigned) [Example 40] the IC50 was 20 nM.

same assay, conditions: HeLa cells, IFNγ 25 ng/mL, 48 hour incubation; read-out: IDO Hela IC50 class (A < 50, B < 250, C < 2000)

Compared with “(S)-3-(3-(3-(4-cyano-3-fluorophenyl)ureido)-4-((R)-1-ethoxy-2,2,2-trifluoroethyl)phenyl)-4-methoxybutanoic acid [Example 63]”, `CCO[C@@H](c1ccc([C@@H](COC)CC(=O)O)cc1Nc1cnc(C)nc1)C(F)(F)F` [Example 81, (S)-3-(4-((S)-1-ethoxy-2,2,2-trifluoroethyl)-3-((2-methylpyrimidin-5-yl)amino)phenyl)-4-methoxybutanoic Acid] is higher in IC50: < 50 nM for the first, 250 to 2000 nM for the second.

First: CCO[C@H](c1ccc([C@H](COC)CC(=O)O)cc1Nc1ncc(F)cn1)C(F)(F)F (single isomer, unassigned) [Example 56]
Second: CC[C@H](CC(=O)O)c1ccc([C@@H](CC)N2CCOCC2)c(Nc2ccc(C#N)cc2)c1 (relative stereo) [Example 122, (R)-3-(3-((4-cyanophenyl)amino)-4-((R)-1-morpholinopropyl)phenyl)pentanoic acid]
The IC50 of the first is higher: 250 to 2000 nM for the first, < 50 nM for the second. The second is the more potent here.

`CC[C@H](CC(=O)O)c1ccc([C@@H](CC)N2CCOCC2)c(Nc2ccc(Cl)cc2)c1` (relative stereo) [Example 123, (R)-3-(3-((4-chlorophenyl)amino)-4-((R)-1-morpholinopropyl)phenyl)pentanoic acid] and `CCO[C@H](c1ccc([C@@H](COC)CC(=O)O)cc1Nc1ccc(Cl)cc1)C(F)(F)F` (single isomer, unassigned) [Example 66] cannot be ordered by IC50: < 50 nM for the first, < 50 nM for the second.

`CCOc1ncc(Nc2cc([C@H](CC)CC(=O)O)ccc2[C@H](CC)C2CCOCC2)cn1` (single isomer, unassigned) [Example 125-2] and `CCO[C@H](c1ccc([C@@H](CC)CC(=O)O)cc1Nc1ccc(F)cc1)C(F)(F)F` (relative stereo) [Example 30, (S)-3-(4-((R)-1-ethoxy-2,2,2-trifluoroethyl)-3-((4-fluorophenyl)amino)phenyl)pentanoic acid] cannot be ordered by IC50: < 50 nM for the first, < 50 nM for the second.

First: CC[C@@H](CC(=O)O)c1ccc([C@@H](OC)C(F)(F)F)c(Nc2ccc(Cl)cc2)c1 (single isomer, unassigned) [Example 83-1]
Second: CCc1ncc(Nc2cc([C@@H](COC)CC(=O)O)ccc2[C@@H](CC)N2CCOCC2)cn1 (relative stereo) [Example 107, (S)-3-(3-((2-ethylpyrimidin-5-yl)amino)-4-((R)-1-morpholinopropyl)phenyl)-4-methoxybutanoic acid]
The IC50 of the first is lower: < 50 nM for the first, 250 to 2000 nM for the second. The first is the more potent here.

First: CC[C@@H](CC(=O)O)c1ccc([C@H](OC)C(F)(F)F)c(Nc2ccc(Cl)cc2)c1 (single isomer, unassigned) [Example 84-2]
Second: CCOc1ncc(Nc2cc([C@@H](COC)CC(=O)O)ccc2[C@@H](CC)N2CCOCC2)cn1 (single isomer, unassigned) [Example 108]
The IC50 of the first is lower: < 50 nM for the first, 250 to 2000 nM for the second. The first is the more potent here.

First: CC[C@H](c1ccc([C@@H](COC)CC(=O)O)cc1Nc1ccc(COC)nc1)N1CCOCC1 (relative stereo) [Example 109, (S)-4-methoxy-3-(3-((6-(methoxymethyl)pyridin-3-yl)amino)-4-((R)-1-morpholinopropyl)phenyl)butanoic acid]
Second: (S)-3-(4-((S)-1-ethoxy-2,2,2-trifluoroethyl)-3-((4-fluorophenyl)amino)phenyl)pentanoic acid [Example 48]
The IC50 of the first is higher: 250 to 2000 nM for the first, < 50 nM for the second.

First: CC[C@H](CC(=O)O)c1ccc([C@@H](CC)C2CCOCC2)c(Nc2ccc(COC)nc2)c1 (single isomer, unassigned) [Example 129]
Second: CCOc1ncc(Nc2cc([C@@H](CC)CC(=O)O)ccc2[C@H](CC)N2CCOCC2)cn1 (single isomer, unassigned) [Example 118-3]
The IC50 of the first is higher: 50 to 250 nM for the first, < 50 nM for the second.
